Test results taken from US9138659B2, “Compositions, methods, and systems relating to controlled crystallization and/or nucleation of molecular species” (Massachusetts Institute of Technology, priority 2010, dated 2015).

Assay: Nucleation induction time of ASA / ACM with PEGDA or PEGDA-co-AM microgels in 38/62 ethanol/water
Format: physicochemical
Settings: for Average nucleation induction time τ (stretched exponential fit): ASA S=2.1; for τ1 (two-exponential fit) / τ2 (two-exponential fit): ASA; for optimum mesh size for inducing ASA nucleation: PEGDA particles
Source text: Nucleation kinetics of model compounds was investigated by measuring the nucleation induction time probability distribution. Nucleation induction time is generally time elapsed prior to the formation of a detectable amount of the new crystalline phase. It is a useful indicator of the surface nucleation activity because it can be dramatically shortened when the presence of an interface lowers the free energy barrier of nucleation. Due to the stochastic nature of nucleation events, a large number of experiments were performed to obtain the probability distribution of nucleation induction time. To obtain the average induction time τ, statistical analysis on the induction time data was conducted based on the understanding that nucleation follows a Poisson distribution. According to Poisson statistics, the probability for a nucleation event to occur beyond time t is P=exp(−t/τ), which implies that the fraction of vials without nucleation at time t exponentially decays as a function of time, where the scaling factor for time is the average induction time.
For determining the statistical analysis of aspirin nucleation induction time with PEGDA particles of various mesh sizes (particles denoted by Mn), 1.9 mL of 38 mg/ml ASA solution in 38/62 ethanol/water (v/v) with 15 μg/mL PEGDA particles was cooled at a rate of 5° C./min from 35° C. to 15° C. to achieve a supersaturation of 2.1. The solution was stirred at 700 rpm. The onset of nucleation was detected by an IR probe which measures the transmission signal through the solution. A total of 10 vials were cycled for 5-10 times to yield 50-100 nucleation induction time measurements for the statistical analysis.
The nucleation rate, J, is given by J=1/τV, where τ the average induction time (Table 1) and V the volume of solution. For this equation to be valid, the assumption is that the crystal growth rate is much faster than the nucleation rate, which is the case for ASA. […] Other crystallization conditions were kept the same.
[…] The solution was stirred at 700 rpm. The onset of nucleation was detected by an IR probe which measures the transmission signal through the solution. A total of 10 vials were cycled for 5-10 times to yield 50-100 nucleation induction time data for the statistical analysis.
Effect of polymer gels on nucleation induction time statistics: To evaluate the impact of polymer-solute interactions on nucleation kinetics, induction times of ASA and ACM were measured with microgels of a series average mesh sizes before and after chemical modification suspended in respective supersaturated solutions. […] For each system, a large number of experiments (50-100) were conducted to obtain the induction time probability distribution. The nucleation induction time generally follows the Poisson distribution. However, deviations can occur, as observed in this study, when there is more than one type of nucleation sites in a sample, giving rise to multiple Poisson processes with different characteristic time scales.
For samples with PEGMDA microgels, the nucleation induction time distributions reported in previous work can be faithfully described by stretched exponentials (Tables 5 and 6), P=exp[−(t/τ)^β], where P is the probability to observe no crystallization event within time t, τ the average induction time. The stretched exponential exponent β served as a measure for the spread of time scales characterizing the nucleation process, or the distribution of kinetic barriers arisen from the heterogeneity of the system. Such heterogeneity can be attributed to the heterogeneity of the polymer microstructure identified using SANS, which resulted from a distribution of nucleation sites arising from spatial variations in both the mesh size and chemical composition of the hydrogel at nanometer length scales. Note that β varies with the average mesh size of the microgel. […]

[1] = PEGDA-co-AM microgels M 130 g/mol
[2] = PEGDA-co-AM microgels M 200 g/mol
[3] = PEGDA-co-AM microgels M 400 g/mol
[4] = PEGDA-co-AM microgels M 575 g/mol
[5] = PEGDA-co-AM microgels M 700 g/mol

- average nucleation induction time τ (ASA S = 2.1, Bulk (no particles), 38/62 ethanol/water): ∞
- average nucleation induction time τ (ASA S = 2.1, PEGDA microparticles Mn 130 g/mol, 38/62 ethanol/water): ∞
- average nucleation induction time τ (ASA S = 2.1, PEGDA microparticles Mn 200 g/mol, 38/62 ethanol/water): 910 ± 40 min
- average nucleation induction time τ (ASA S = 2.1, PEGDA microparticles Mn 400 g/mol, 38/62 ethanol/water): 60 min
- average nucleation induction time τ (ASA S = 2.1, PEGDA microparticles Mn 400 g/mol, 38/62 ethanol/water, listed as ASA): 63 ± 3 min
- average nucleation induction time τ (ASA S = 2.1, PEGDA microparticles Mn 575 g/mol, 38/62 ethanol/water): 1900 ± 100 min
- average nucleation induction time τ (ASA S = 2.1, PEGDA microparticles Mn 700 g/mol, 38/62 ethanol/water): 6600 ± 1100 min
- average nucleation induction time τ (ASA S = 3.3, Bulk (no particles), 38/62 ethanol/water): 2500 ± 600 min
- average nucleation induction time τ (ASA S = 3.3, PEGDA microparticles Mn 130 g/mol): 330 ± 60 min
- average nucleation induction time τ (ASA S = 3.3, PEGDA microparticles Mn 200 g/mol): 52 ± 3 min
- average nucleation induction time τ (ASA S = 3.3, PEGDA microparticles Mn 400 g/mol): 123 ± 7 min
- average nucleation induction time τ (ASA S = 3.3, PEGDA microparticles Mn 700 g/mol): 240 ± 20 min
- Average nucleation induction time τ (stretched exponential fit) (Bulk / PEGDA microgels M 130 g/mol): Not detectable
- Average nucleation induction time τ (stretched exponential fit) (PEGDA microgels M 200 g/mol): 1052 min
- Average nucleation induction time τ (stretched exponential fit) (PEGDA microgels M 400 g/mol): 66.7 min
- Average nucleation induction time τ (stretched exponential fit) (PEGDA microgels M 575 g/mol): 3500 min
- Average nucleation induction time τ (stretched exponential fit) (PEGDA microgels M 700 g/mol): 210000 min
- τ1 (two-exponential fit) [1]: 170 min
- τ2 (two-exponential fit) [1]: 4900 min
- τ1 (two-exponential fit) [2]: 21 min
- τ2 (two-exponential fit) [2]: 99 min
- τ1 (two-exponential fit) [3]: 39 min
- τ2 (two-exponential fit) [3]: 400 min
- τ1 (two-exponential fit) [4]: 51 min
- τ2 (two-exponential fit) [4]: 470 min
- τ1 (two-exponential fit) [5]: 33 min
- τ2 (two-exponential fit) [5]: 720 min
- optimum mesh size for inducing ASA nucleation (8° C, higher supersaturation (3.4)): 10 Å
- optimum mesh size for inducing ASA nucleation (15° C, supersaturation 2.1): approximately 15 Å
- promotion of nucleation kinetics when AM co-monomer was introduced into the PEGDA matrix (PEGDA-co-AM vs PEGDA microgels): up to four orders of magnitude
- best enhancement in nucleation kinetics by addition of PEGDA particles (vs bulk, Table 2): many orders of magnitudes
Structure (SMILES): CC(=O)Oc1ccccc1C(=O)O [aspirin]
